Results on one molecule are retold here after publication PMC10386886, “First-in-class multifunctional TYMS nonclassical antifolate inhibitor with potent in vivo activity that prolongs survival” (JCI Insight, 2023).

SMILES strings stand for the structures.

A short description of series [1]: in vivo. Particulars: FVB/129/Sv, mouse, ip.
Experimental: Animals received 4 treatment cycles and were then monitored once off treatment until survival endpoint.
Maximum tolerated dose (MTD)
(§3) experiment) or 5, 10, 25 or 50 mg/kg of 5-FU daily during 5 consecutive days. After 3 treatment cycles,
(§4) animals rested (no treatment) for one more week before euthanasia. Body weight and physical status
(§5) of all mice were closely monitored. Tissues were collected and fixed in alcoholic formalin to test for
(§6) daily during 5 consecutive days for 3 weeks. After 3 treatment cycles, animals rested (no treatment) for
(§7) one more week before euthanasia. Body weight and physical status of all mice were closely monitored.
(§8) Tissues were collected and fixed in alcoholic formalin to test for toxicity.
(§9) Specimens were fixed in alcoholic formalin for 48h and then transferred to 70% ethanol, processed and
(§10) embedded in paraffin. Tissues were serially sectioned and stained by conventional H&E. Slides were
Series [2] concerns CM cells. Description: MTS viability assay, CM. The series is classed as cell-based. Particulars: 72-hour drug incubation, Figure 1C. Background: Tetrazolium dyes change colour on reduction, which living cells bring about.
The subject of series [3] is MIA PaCa-2 cells. Description: MTS viability assay, MIA PaCa-2. Particulars: Homo sapiens, 72-hour drug incubation, Figure 1C. The format is cell-based. As to the method:
(§1) Cells were harvested after 72 hours, and cell pellets were stored at –80°C. […] After 72 hours, cell viability was assessed by reduction of MTS using Cell Titer 96 R Aqueous One Solution Cell Proliferation Assay Kit (Promega, catalog G8081), following manufacturer’s recommendations. […] was measured on a SpectraMax M3 (Molecular Devices). Data were plotted in GraphPad Prism 9 to determine GI50 concentration. Chemical synthesis details, including characterization of each compound, can be found in the Supplemental section associated with this publication.

Series [4] deals with PANC-1 and MIA PaCa-2 cells. Description: Cell count assay for acquired resistance. The format is cell-based. The settings on record: constant 10 μM.
Experimental: 500000 PANC-1 and MiaPaCa- 2 cells were plated in 75 cm2 flasks in DMEM high glucose
supplemented with 5 U/ml Penicillin/Streptomycin and 10% fetal bovine serum. Cells were treated with
Once a week for 7 weeks, cells were trypsinized with Trypsin-
EDTA 0.05% (Gibco) and counted using Cellometer Auto T4 (Nexcelom Bioscience). 500000 cells were
re-seeded in a new 75 cm2 flask in the appropriate treatment. Data was plotted in GraphPad Prism 9.
For series [5], the system named is TYMS. Description: Immunoblot of TYMS levels in treated PANC-1 cells. The series is classed as cell-based. The settings on record: PANC-1, 72 hours, Figure 1D. As to the method:
as §1
A total of 20 μg of total protein lysate was loaded per lane of 10% Tris Glycine Gel (Invitrogen, catalog EC6076). SDS-PAGE was run at 150 V for 1.5 to 2 hours. Proteins were transferred to nitrocellulose membranes using iBlot (Invitrogen, catalog IB3011002). Membranes were blocked with 5% nonfat dry milk (Lab Scientific, catalog M0841) in Tris-buffered saline supplemented with Tween 20 (0.1%) (TBS-T) for 45–60 minutes at room temperature (RT). […] Signal was detected using West Pico Plus chemiluminescence substrate (Thermo Fisher Scientific, catalog 34580) following manufacturer’s recommendations. […] For protein-level quantification relative to loading control, densitometric analysis was performed by ImageJ software (NIH).

Series [6] deals with PANC-1 cells. Nature of the series: MTS viability assay, PANC-1. Particulars: Homo sapiens, 72-hour drug incubation, Figure 1C. The format is cell-based.
Series [7] concerns H1048 small cell lung cancer cell line. Nature of the series: Viability assay, H1048. The format is cell-based. Particulars: Homo sapiens, NCI-H1048; Supplemental Figure 1B.
Experimental: H1048, Colo320, H630 and CCD18Co cells were purchased from ATCC. Cells were grown in RPMI
1640 supplemented with 5 U/ml Penicillin/Streptomycin and 10% fetal bovine serum at a constant
temperature of 37 °C in a humidified atmosphere of 5% carbon dioxide and were routinely tested for
mycoplasma contamination.
For GI50 determination, 3000 Colo320, H630 and CCD18Co cells per well were plated in 96 well plates
hours, cell viability was assessed by reduction of MTT (3-(4,5- dimethylthiazol-2-yl)-2,5-diphenyltetrazolium bromide) using MTT Reagent (Invitrogen, Cat # M6494), following manufacturer’s
recommendations. Chemiluminescent output (integration time 1000 ms) was measured on a
SpectraMax M3 (Molecular Devices). Data was plotted in GraphPad Prism 9 to determine GI50
The nature of series [8]: in vivo. The settings on record: NSG, mouse, ip.
Experimental: Maximum tolerated dose (MTD)
as §3, §4, §5, §6, §7, §8, §9, §10
For series [9], the system named is TYMS. Nature of the series: TYMS levels in Luc-PANC-1 xenograft tumors (immunoblot). The format is in vivo, mouse. The settings on record: 25 mg/kg daily IP, 5 consecutive days. An excerpt:
(§2) In the subcutaneous tumor model, the resulting Luc-PANC-1 xenograft tumors were monitored by direct tumor measurements and bioluminescence photon flux that is proportional to tumor size. […] Treatment was initiated 30 days after Luc-PANC-1 cell line subcutaneous injections (5 × 10^6 cells), when tumors reached 100 mm^3 in volume, generating a bioluminescence photon flux of 3 × 10^9 to 4 × 10^9 photons/s. […] Tumors from both treatment groups were excised, and the tumor mass was weighed (Figure 2E).
A small piece of frozen tumor (stored at -80 °C) in RIPA buffer with phosphatase and proteinase inhibitors (Santa Cruz, sc-24948) was homogenized using Omni general laboratory homogenizer (GLH). Tumor was then centrifuged for 20 min at 12000 rpm and 4 °C to obtain whole -cell lysates that was transferred to a new tube. Protein concentration was measured using Bradford Assay and 20 µg of total protein lysate was loaded as described in Methods.
Tritium based TYMS catalytic activity assay
The catalytic activity of TYMS was determined by measuring the release of [3H] from [5-3H]dUMP (ViTrax, Cat # VT122) resulting from the conversion of dUMP to dTMP as previously described (2, 3).
The reaction conditions were optimized to determine the amount of TYMS protein needed to establish […]

The test system of series [10] is 5-FU-resistant PANC-1 cells. Nature of the series: Clonability assay in 5-FU-resistant PANC-1 cells. The series is classed as cell-based. Particulars: 8.35 μM 19-S or 6.5 μM 5-FU, 21 days.
Experimental: 500 PANC- 1 cells resistant to 6.5 µM 5-FU cells were seeded in 6 well plates by triplicate in media
After 21 days, cells were washed with PBS, fixed with Methanol for 20 minutes and stained with
1% Crystal violet (in PBS) for 20 minutes. After extensive washing, plates were let dry and colonies
were counted and plotted in GraphPad Prism 9. Images were taken using scanner Epson Perfection
In series [11] the test system is Luc-PANC-1 xenograft tumors. Description: Luc-PANC-1 subcutaneous xenograft tumor model. The format is in vivo. The settings on record: 19-S vs 5-FU comparison, Supplemental Figure 6.
Source text: as §2
Luc-PANC-1 (5 × 10^6) and Luc-CM (0.5 × 10^6) cells were resuspended in 200 μL of PBS and injected subcutaneously or IP, respectively, into 6- to 8-week-old NSG mice. Tumor-bearing mice were imaged using Xenogen IVIS Lumina Bioluminescence Imaging System (PerkinElmer) every week after cell injection. […] For all animals, body weight was recorded weekly, and Luc-PANC-1 tumor volume was measured weekly with a caliper. For scheduled sacrifice experiments, animals were euthanized after 4 weeks of treatment. […] Tumor volume was calculated as volume = 0.52(length × width^2).
Prior to bioluminescence imaging the region where tumors were located was shaved. […] Following the injection of the D-luciferin substrate mice, were imaged using the Xenogen IVIS Lumina Bioluminescence Imaging System (PerkinElmer). The peak of luciferase photon flux was recorded 6 minutes after injection of the D-luciferin substrate. The total photon flux was analyzed and restricted to tumor region of interest using Living Image v2.60.1 software (Imaging Systems).

Series [12] concerns BON cells. Nature of the series: MTS viability assay, BON. The settings on record: 72-hour drug incubation, Figure 1C. The format is cell-based.

Turning to `O=c1[nH]cc(F)c(=O)[nH]1` [Compound 5-FU, 5-fluorouracil], the MTD at 3 treatment cycles (5 consecutive days of daily dosing each) in series [1] and in series [8] was 25 mg/kg each time. Moreover, the GI50 (in general, the concentration giving 50% growth inhibition) stood at 14.8 µM in [2]; 20.4 µM in series [3]; 15.7 µM in [6]; 3.63 µM in series [7]; 7.47 µM in [12]. The “Effect on cell counts after 1 week” value in series [4] is on record as “potent cytotoxic effect”. The “Viable cells after 4 weeks of treatment” value in series [4] was “remained detectible”. In addition, the “TYMS protein expression after treatment” value in [5] stood at 3 fold. In addition, the “TYMS protein level in tumors” value in series [9] was “higher than TYMS protein level in vehicle-treated controls”. Moreover, the Colony formation entry in series [10] is on record as “colonies were observed”. Also, in [11], the “Tumor volume compared with control mice” value is given as “significant reduction in tumor volume”. Besides, it took 7.1 µM to reach half-maximal inhibition in series [12] (IC50).
